Target: Hepatocyte growth factor receptor (Homo sapiens, UniProt P08581)
Assay: Kinase Assay: The inhibitory effect of the compounds of the present invention on the activity of c-Met was confirmed as follows.Specifically, 250 μM G4Y1 peptide, which serves as a substrate for c-Met enzyme (2 ng/μL), and 50 μM ATP were subjected to an enzyme reaction in a reaction buffer (40 mM Tris-HCl (pH 7.5), 20 mM MgCl2, 0.1 mg/mL bovine serum albumin, and 50 μM DTT). The compounds prepared in Examples and comparative compounds were treated at various concentrations and reacted at room temperature for 1 hour, sequentially added with ADP-Glo™ Reagent and the Kinase detection reagent, and reacted at room temperature for 40 minutes and 30 minutes, respectively.

Chain of Hepatocyte growth factor receptor (P08581 whole entry): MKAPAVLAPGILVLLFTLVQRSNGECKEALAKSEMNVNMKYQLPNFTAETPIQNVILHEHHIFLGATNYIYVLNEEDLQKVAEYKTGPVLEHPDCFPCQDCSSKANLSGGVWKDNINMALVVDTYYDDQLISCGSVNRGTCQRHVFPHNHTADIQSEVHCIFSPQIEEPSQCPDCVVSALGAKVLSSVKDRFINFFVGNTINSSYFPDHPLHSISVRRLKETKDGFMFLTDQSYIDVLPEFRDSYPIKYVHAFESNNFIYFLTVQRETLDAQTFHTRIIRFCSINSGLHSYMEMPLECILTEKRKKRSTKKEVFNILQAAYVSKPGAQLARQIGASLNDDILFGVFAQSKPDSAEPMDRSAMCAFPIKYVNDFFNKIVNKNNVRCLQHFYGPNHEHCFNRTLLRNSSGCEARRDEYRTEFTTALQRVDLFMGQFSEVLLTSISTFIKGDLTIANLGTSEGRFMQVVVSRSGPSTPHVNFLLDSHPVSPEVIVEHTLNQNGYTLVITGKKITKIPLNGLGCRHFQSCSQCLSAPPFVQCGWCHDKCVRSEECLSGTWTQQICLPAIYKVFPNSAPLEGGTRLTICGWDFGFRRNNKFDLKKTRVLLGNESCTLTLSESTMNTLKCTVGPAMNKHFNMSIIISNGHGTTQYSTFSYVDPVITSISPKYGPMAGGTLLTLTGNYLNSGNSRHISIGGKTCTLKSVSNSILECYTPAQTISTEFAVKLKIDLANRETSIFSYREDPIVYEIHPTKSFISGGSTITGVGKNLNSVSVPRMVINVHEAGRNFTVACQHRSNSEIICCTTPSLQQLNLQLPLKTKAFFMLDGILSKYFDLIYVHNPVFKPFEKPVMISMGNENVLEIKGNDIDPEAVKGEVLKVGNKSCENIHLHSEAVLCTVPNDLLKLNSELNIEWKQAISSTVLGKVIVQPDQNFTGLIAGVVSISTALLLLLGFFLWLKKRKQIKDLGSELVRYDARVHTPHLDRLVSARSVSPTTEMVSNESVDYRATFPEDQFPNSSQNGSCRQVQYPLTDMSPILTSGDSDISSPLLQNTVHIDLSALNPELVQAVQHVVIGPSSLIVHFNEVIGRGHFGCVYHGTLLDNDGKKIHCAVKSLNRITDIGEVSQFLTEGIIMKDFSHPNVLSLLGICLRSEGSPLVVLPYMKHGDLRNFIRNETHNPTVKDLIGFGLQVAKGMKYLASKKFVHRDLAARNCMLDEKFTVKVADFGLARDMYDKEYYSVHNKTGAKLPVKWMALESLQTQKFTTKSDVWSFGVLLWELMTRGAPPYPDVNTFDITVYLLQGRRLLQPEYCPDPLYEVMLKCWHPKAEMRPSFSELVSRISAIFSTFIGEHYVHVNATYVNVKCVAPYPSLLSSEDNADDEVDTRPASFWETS

Row | Structure (SMILES) | IC50 [nM]
1 | CN(C)Cc1ccc(F)c(-c2ccn3nccc(Oc4ccc(NC(=O)C5(C(=O)Nc6ccc(F)cc6)CC5)cc4F)c23)c1 | < 40
2 | CCNc1cccc(-c2ccn3nccc(Oc4ccc(NC(=O)C5(C(=O)Nc6ccc(F)cc6)CC5)cc4F)c23)c1 | < 40
3 | CN(C)Cc1ccc(Cl)c(-c2ccn3nccc(Oc4ccc(NC(=O)C5(C(=O)Nc6ccc(F)cc6)CC5)cc4F)c23)c1 | < 40
4 | NCc1cccc(-c2ccn3nccc(Oc4ccc(NC(=O)C5(C(=O)Nc6ccc(F)cc6)CC5)cc4F)c23)c1 | < 40
5 | CCNCc1cccc(-c2ccn3nccc(Oc4ccc(NC(=O)C5(C(=O)Nc6ccc(F)cc6)CC5)cc4F)c23)c1 | < 40
6 | CN(C)Cc1cccc(-c2ccn3nccc(Oc4ccc(NC(=O)C5(C(=O)Nc6ccc(F)cc6)CC5)cc4F)c23)c1 | < 40
7 | N#CCc1cccc(-c2ccn3nccc(Oc4ccc(NC(=O)C5(C(=O)Nc6ccc(F)cc6)CC5)cc4F)c23)c1 | < 40
8 | N#Cc1cc(N)cc(-c2ccn3nccc(Oc4ccc(NC(=O)C5(C(=O)Nc6ccc(F)cc6)CC5)cc4F)c23)c1 | < 40
9 | CNCc1cccc(-c2ccn3nccc(Oc4ccc(NC(=O)C5(C(=O)Nc6ccc(F)cc6)CC5)cc4F)c23)c1 | < 40
10 | CN(C)Cc1cc(F)cc(-c2ccn3nccc(Oc4ccc(NC(=O)C5(C(=O)Nc6ccc(F)cc6)CC5)cc4F)c23)c1 | < 40
